From PubChem BioAssay AID624404 (Broad Institute, 2012)
Results filed as inconclusive are left out.

What follows are molecules tested on D54 LucT luciferase reporter counterscreen, luminescence, 24 h (assay: luciferase activators in glycosylation-insensitive reporter cells, dose response, counter-screen for N-linked glycosylation inhibitor project, D54 LucT cells, luminescence, cherry pick (AID 624404)).

| Structure (SMILES) | AC35 [µM] |
| --- | --- |
| O=C(NCc1ccccc1Br)c1cccc2c1C(=O)c1ccc(-c3ccc(OC(F)(F)F)cc3)cc1S2(=O)=O | 0.408 |
| COc1ccc(NC(=O)C2Cc3c(-c4cccc(C(C)=O)c4)ccnc3O2)cc1 (stereo not given) | 0.0909 |
| CCOc1ccc(N2C(=O)Nc3ccccc3C2(O)C(=O)N2CCN(c3ccccn3)CC2)cc1 (stereo not given) | 1.2 |
| CCN1C(=O)Nc2cccc3cccc1c23 | 3.14 |
| C[C@@H](NC(=O)c1ncn2c1c(=O)[nH]c1ccc(Br)cc12)c1ccccc1 | 0.21 |
| COc1ccc2c(c1)C(=O)N1[C@H]3c4cc(Cl)ccc4OC[C@@H]3[C@H](c3ccccc3)[C@]1(C)C(=O)N2 | 0.981 |
| COC(=O)c1c(NC(=O)c2cccnc2Cl)sc(C(=O)N(C)C)c1C | 1.38 |
| CCOC(=O)c1sc(Nc2nc(C)cc(C)n2)nc1C | 1.07 |
| COc1ccc2c(c1)[C@H]1[C@H](CO2)[C@H](c2ccccc2)[C@]2(C)C(=O)Nc3ccc(F)cc3C(=O)N12 | 0.582 |
| CC(C)c1ccc(/C=N/NC(=O)c2ccccc2Cl)cc1 | 0.247 |
| COc1ccc(C(=O)c2sc(Nc3ccccc3)nc2N)cc1 | 0.645 |
| COc1ccc(Nc2cc(C)nc(-n3nc(C)cc3C)n2)cc1 | 0.15 |
| Cc1cnc(NC(=O)C2CC(=O)N(c3cccc(Cl)c3)C2)s1 (stereo not given) | 1.6 |
| CNC(=O)c1cccn(Cc2cccc(C(F)(F)F)c2)c1=O | 0.231 |
| Cc1ccc(C(=O)Nc2ccccc2C(=O)N2CC(C)OC(C)C2)cc1 (stereo not given) | 0.625 |
| CCc1ccc(/C=N/NC(=O)c2nnn(-c3nonc3N)c2C(C)C)cc1 | 2.63 |
| CSc1nnc(-c2sccc2OCc2ccccc2)n1C | 0.929 |
| N#Cc1ccc(-c2cccs2)nc1SCc1cccnc1 | 0.848 |
| COc1cc(F)ccc1-c1csc(C(NC(C)=O)c2ccc(F)c(F)c2)n1 (stereo not given) | 0.27 |
| Cc1ccc(S(=O)(=O)N(C)C[C@H]2Oc3ccc(NC(=O)C4CCCCC4)cc3C(=O)N([C@H](C)CO)C[C@H]2C)cc1 | 0.555 |
| COc1ccc(C(=O)/C=C/c2ccc(-c3ccccc3)cc2)cc1CSCC(=O)O | 0.875 |
| O=S(=O)([N-]c1nc2ccccc2nc1-n1cc[n+](Cc2ccccc2)c1)c1ccc(Br)cc1 | 0.057 |
| COc1ccc(C(=O)N/N=C/C23CC[C@@H](O)CC2(O)CC[C@@H]2[C@@H]3CCC3(C)C(C4=CC(=O)OC4)CCC23O)cc1 (stereo not given in full) | 0.388 |
| CCOC(=O)C1CCN(c2c(N3CCN(Cc4ccccc4)CC3)c(=O)c2=O)CC1 | 1.22 |
| O=C1N[C@H]2CC=C[C@H]2N(Cc2cccs2)c2ccccc21 | 0.199 |
| Cc1ccc(N2CC(C(=O)Nc3ccc(S(=O)(=O)N4CCOCC4)cc3)CC2=O)cc1Cl (stereo not given) | 2.53 |
| CCc1ccc(CNC(=O)Cc2ccc(NC(=O)C3=C(C)OCCS3)cc2)cc1 | 0.32 |

| Structure (SMILES) | AC35 [µM] |
| --- | --- |
| COc1ccc(CCCC(=O)NCc2ccccc2)cc1C | 2.78 |
| COc1cc(-c2nc(-c3ccccc3)c(-c3cccs3)[nH]2)cc(OC)c1OC | 7.05 |
| Cn1c(SCC(=O)c2ccc(F)cc2)ncc(C(=O)Nc2ccccc2)c1=O | 1.69 |
| CCOc1ccc(/C=C2\SC(N3CCCCC3)=NC2=O)cc1 | 5.57 |
| O=C(NCc1cccs1)C1Cc2c(-c3ccc(Cl)cc3)ccnc2O1 (stereo not given) | 0.166 |
| CC(=O)Nc1ccc(CC(=O)NCCC(c2ccccc2)c2ccccc2)cc1 | 7.67 |
| Cc1ccc(C(=O)N/C(=C\c2ccco2)C(=O)NCCc2c[nH]c3ccccc23)cc1 | 1.74 |
| CC1CN(C(=O)c2ccc(COc3ccc(C(C)C)cc3)o2)CC(C)O1 (stereo not given) | < 0.0012 |
| O=C(Nc1ncccc1O)c1ccc(S(=O)(=O)Nc2ccccc2)cc1 | 2.19 |
| O=C(Nc1cccc(NC(=O)c2cccs2)c1)c1ccc([N+](=O)[O-])o1 | 1.05 |
| COCCNC(=O)c1cc(-c2cccs2)on1 | 1.02 |
| O=C1c2ccccc2C(=O)N1Cc1cnc(N2CCN(c3ccccc3)CC2)s1 | 2.89 |
| C=CCn1c(O)c(/C=C2/C=CC=N2)c(=O)[nH]c1=O | 14.3 |
| COc1cc2c(cc1OC)CN(c1ccc(C(F)(F)F)cn1)CC2 | 2.5 |
| COc1ccc2oc(-c3ccccc3[N+](=O)[O-])cc(=O)c2c1 | 0.174 |
| C[C@H](CO)N1C[C@H](C)[C@@H](CN(C)S(=O)(=O)c2ccccc2)Oc2c(NC(=O)Cc3ccccc3)cccc2C1=O | 2.24 |
| CC(=O)Nc1cccc(NC(=O)c2ccccc2OCc2ccccc2)c1 | 3.83 |
| Cc1ccc(SCC(=O)Nc2ccc(-c3nc4ccccc4[nH]3)cc2)cc1 | 0.337 |
| Cc1ccc(C(=O)NC(=C(Cl)Cl)S(=O)(=O)c2ccc(Cl)cc2)cc1 | 12.7 |
| Cc1ccc(C(=O)N2CCN(Cc3ccccc3)CC2)cc1S(=O)(=O)N1CCOCC1 | 2.96 |
| COc1ccc(CCn2c(O)c(C=NCc3ccc4c(c3)OCO4)c(=O)[nH]c2=O)cc1OC | 0.678 |
| C[C@@]12C(=O)Nc3cc(Cl)ccc3C(=O)N1[C@H]1c3cc(Cl)ccc3OC[C@@H]1[C@@H]2c1ccccc1 | 1.44 |
| CCn1c2ccccc2c2cc(Nc3cc(C)nc4ncnn34)ccc21 | 0.42 |
| CC(=O)c1cccc(Nc2cc(C)nc3c(C)cc(C)cc23)c1 | 0.0234 |
| CC1(C)Cc2nc3sc4c(SCC(=O)NCc5ccccc5)ncnc4c3cc2CO1 | 0.0157 |
| C=CCn1c(SCc2c(C)noc2C)nc2sc3c(c2c1=O)CCC(C)C3 (stereo not given) | 0.238 |
| COc1cc(NC(=O)c2ccc(-c3c(C)noc3C)c3ccoc23)cc(OC)c1OC | 0.0582 |

| Structure (SMILES) | AC35 [µM] |
| --- | --- |
| COc1ccc(-c2oc3cc(O)c(OC)c(O)c3c(=O)c2OC)cc1O | 0.909 |
| COc1cc(N=Nc2cccc(S(N)(=O)=O)c2)c2ccccc2c1N | 1.66 |
| COc1cccc(-c2cnc3c(NC(C)=O)cc(-c4cc(F)ccc4OC)cn23)c1 | 4.27 |
| COC(=O)Nc1nc2ccc(-c3n[nH]c(=O)c4ccccc34)cc2[nH]1 | 0.282 |
| Cc1ccc(C=Nc2ccccc2C(N)=O)cc1 | 2.75 |
| O=C(N/N=C/c1ccco1)c1ccccc1OCc1ccccc1Cl | 1.11 |
| O=C(COC(=O)c1cccc(Br)c1)Nc1cccc2c1C(=O)c1ccccc1C2=O | 1.15 |
| COc1cc(NC(C(=O)Nc2cccc(C(C)=O)c2)c2ccccc2)cc(OC)c1OC (stereo not given) | 0.00556 |
| CCOC(=O)N1CCC(NC(=O)c2ccc3c(c2)N=C(C)c2c(C)ccc(C)c2S3)CC1 | 0.94 |
| C=CCn1c(O)c(C(CC)=NC(C)c2ccccc2)c(=O)[nH]c1=O (stereo not given) | 1.08 |
| C/C(=N\O)C(=O)C(CN1CCCCC1)CN1CCCCC1 | 1.21 |
| COc1cc(CN2CCc3ccccc3C2)ccc1O | 2 |
| COC(=O)c1ccc(C)c(NC(=O)CN(c2cc(OC)ccc2OC)S(C)(=O)=O)c1 | 0.226 |
| O=C1Cc2c(-c3ccccc3)cc(-c3cccc(Cl)c3)nc2-c2ccccc2N1 | 5.37 |
| CC(=O)N1CCc2c(sc(NC(=O)c3ccc4c(c3)OCCO4)c2C#N)C1 | 1.52 |
| Nc1c(N(Cc2ccccc2)C(=O)COc2ccc([N+](=O)[O-])cc2)c(=O)[nH]c(=O)n1Cc1ccccc1 | 0.303 |
| Cn1c(=O)cc(OCCCC(=O)Nc2ccc3c(c2)OCCO3)c2ccccc21 | 0.353 |
| Oc1ccc(C2=NNC(=NCc3ccc4c(c3)OCO4)SC2)c(O)c1 | 3.12 |
| COc1cccc(OCc2nc3ncc(Br)cc3[nH]2)c1 | 2.48 |
| CCN(CC)c1ccc(/C=N\NC(=O)c2cccc3cc[nH]c23)cc1 | 1.94 |
| COc1ccc(CCn2c(=N)c(C(=O)NCC3CCCO3)cc3c(=O)n4cccc(C)c4nc32)cc1OC (stereo not given) | 0.154 |
| O=C(N/N=C/c1ccc(F)cc1)c1sccc1OCc1ccc(F)cc1 | 1.58 |
| CCn1c2ccccc2c2cc(NC(=O)COC(=O)c3ccccc3F)ccc21 | 4.22 |
| Brc1ccc(C2=Nn3c(nnc3-c3n[nH]c4c3CCC4)SC2)cc1 | 0.394 |
| COc1ccccc1CCNCc1ccc(OC)c(OCc2ccccc2)c1 | 1.17 |
| C[C@@]12C(=O)Nc3cc(F)c(F)cc3C(=O)N1[C@H]1c3ccccc3OC[C@@H]1[C@@H]2c1ccccc1 | 0.746 |
| CN(C)C(CNC(=O)CSc1nc2sc3c(c2c(=O)n1C)CCCC3)c1ccccc1 (stereo not given) | 0.682 |

| Structure (SMILES) | AC35 [µM] |
| --- | --- |
| COc1ccc(C2=NOC(C(=O)NCc3ccco3)C2)cc1 (stereo not given) | 0.784 |
| COc1cc2c(cc1OC)C(c1cccs1)N(C(=O)c1cccc(S(=O)(=O)N(C)C)c1)CC2 (stereo not given) | 0.64 |
| Cc1ccc2c(c1)C(=O)N1[C@H]3c4cc(C)ccc4OC[C@@H]3[C@H](c3ccccc3)[C@]1(C)C(=O)N2 | 0.499 |
| NC1(C(=O)O)CSSC1 | 3.05 |
| Cn1cccc1/C=C1\SC(=Nc2cccc(O)c2)NC1=O | 1.76 |
| C[C@@]12C(=O)Nc3ccc(Br)cc3C(=O)N1[C@H]1c3ccccc3OC[C@@H]1[C@@H]2c1ccccc1 | 0.785 |
| Cc1ccc2c(c1)[C@H]1[C@H](CO2)[C@H](c2ccccc2)[C@]2(C)C(=O)Nc3ccc(Br)cc3C(=O)N12 | 1.76 |
| CCOc1ccc2[nH]c(C(=O)N/N=C/c3cc(OC)c(OC)c(OC)c3)cc2c1 | 3.27 |
| CC(=O)Nc1ccc(CNc2ncnc3ccc(-c4c(C)noc4C)cc23)cc1 | 0.264 |
| Cc1cccc(NC(=O)c2cnn3ccccc23)c1C | 0.532 |
| COc1cc2c(cc1OC)C(=O)N1[C@H]3c4cc(Cl)ccc4OC[C@@H]3[C@H](c3ccccc3)[C@]1(C)C(=O)N2 | 0.449 |
| Cc1ccc(S(=O)(=O)N2CCN(C(=O)COC(=O)c3cc([N+](=O)[O-])ccc3NCCO)CC2)c(C)c1 | 1.46 |
| COc1ccc2c(c1)[C@H]1[C@H](CO2)[C@H](c2ccccc2)[C@]2(C)C(=O)Nc3cc(F)c(F)cc3C(=O)N12 | 0.469 |
| CC(CC(=O)Nc1ccc2c(c1)c(=O)n(C)n2-c1cccs1)c1ccccc1 (stereo not given) | 7.42 |
| Cc1nc(Nc2nc(-c3ccccc3)cc(=O)[nH]2)nc2ccccc12 | 4.91 |
| CCc1nn2c(NCCCO)cc(C)nc2c1-c1ccc(F)cc1 | 0.184 |
| c1ccc2c(c1)C1=NCCN1c1ccccc1-2 | 6.25 |
| COc1ccc(NC(=O)C2(C)Cc3c(-c4cccc(C(N)=O)c4)ccnc3O2)cc1 (stereo not given) | 3.62 |
| CC[C@H](C)[C@@H](NC(=O)O[C@@H]1C(=O)c2cc(OC)ccc2O[C@H]1c1ccc(OC)c(Br)c1)C(=O)OC | 1.48 |
| CCOc1ccc(C(=O)n2cc(C(=O)OC)c3ccccc32)cc1 | 6.03 |
| Cc1cccn2c(=O)c3cc(C(=O)N4CCC5(CC4)OCCO5)n(C)c3nc12 | 0.31 |
| CCCCCC(O)C=CC1C(O)CC(O)C1CC=CCCCC(=O)O (stereo not given) | 0.00382 |
| COc1ccc(CNC(=O)c2cccc3c(-c4cccc(C(N)=O)c4)coc23)cc1OC | 0.408 |
| COC(=O)c1ccc2c(=O)n(Cc3ccc(C(=O)NC(C)C)cc3)c(=S)[nH]c2c1 | 4.28 |
